pIC50: −log10 of the molar value. Read-outs that look alike come from different tables or passages of the source.

In assay [1] the test system is circadian rhythms. Particulars: cellular reporter assays; cited from earlier work.
For assay [2], the system named is circadian rhythms. Particulars: in vivo locomotor activity of a variety of species; cited from earlier work.
For assay [3] the following is noted: including conditioned place preference with cocaine and alcohol reinstatement; cited from earlier work.
The conditions of assay [4]: ob/ob and diet-induced obese mouse, daily administration; cited from earlier work.
Another assay has as its target T1, human CSNK1D (Homo sapiens, UniProt P48730).
T1 construct: expressed in transfected cells
Kind of assay: Whole Cell nBRET CSNK1D Binding Assay. Particulars: living CHO cells stably expressing human CSNK1D tagged with nanoluciferase; NanoBret tracer 130 nM; 2 hours at 37 C.

Assay [5] deals with T2, human recombinant GST cleaved CSNK1D (Homo sapiens, UniProt P48730).
T2 construct: GST (cleaved yes); purchased University of Dundee clone DU 19064
T2 sequence (P48730 whole entry): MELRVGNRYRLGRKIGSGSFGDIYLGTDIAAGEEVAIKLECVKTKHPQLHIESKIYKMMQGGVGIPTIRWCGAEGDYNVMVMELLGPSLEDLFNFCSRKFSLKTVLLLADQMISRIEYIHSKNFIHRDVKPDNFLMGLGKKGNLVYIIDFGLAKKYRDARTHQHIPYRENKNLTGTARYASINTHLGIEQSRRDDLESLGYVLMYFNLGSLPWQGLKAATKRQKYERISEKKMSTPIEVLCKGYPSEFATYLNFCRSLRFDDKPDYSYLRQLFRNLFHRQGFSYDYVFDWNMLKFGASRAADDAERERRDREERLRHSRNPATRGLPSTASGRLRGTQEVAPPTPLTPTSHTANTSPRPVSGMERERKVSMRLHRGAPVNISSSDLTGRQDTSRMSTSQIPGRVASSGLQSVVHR
Kind of assay: Purified Enzyme Assay (ADP-Glo CSNK1D Kinase Assay). Format: biochemical. Particulars: 2 nM CSNK1D; peptide substrate 150 μM; ATP 20 μM; 45 minutes at room temperature. The essentials: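 GST-cleaved human recombinant CSNK1D phosphorylates peptide PLSRTL-pS-VASLPGL with ATP; compounds added in dose-response, 45 min at room temperature. ADP formed measured by ADP-Glo luminescence and converted to percent activity.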
(ADP-Glo first removes unused ATP, then detects ADP through luciferase.)

T1 sequence (P48730 whole entry): as above

In the case of `Nc1nccc(-c2c(-c3ccc(F)cc3)ncn2C2CCCCC2)n1` [PF-670462], the “effect on circadian rhythms” value in the assay with circadian rhythms [1] and in the assay with circadian rhythms [2] was “significantly lengthened circadian rhythms” throughout. In addition, the “efficacy in addiction/substance abuse models” value in assay [3] is listed as “shown efficacy”.
In the case of `Nc1nccc(-c2c(-c3ccc(F)cc3)ncn2C2CCN(Cc3ccon3)CC2)n1` [PF-5006739], the “effect on circadian rhythms” value with circadian rhythms [1] and in the assay with circadian rhythms [2] was “significantly lengthened circadian rhythms” in each case. In assay [4], the glucose tolerance result is reported as “improve glucose tolerance”.
As a reminder, the pIC50 is the IC50 on a negative log10 scale, so that one unit is a factor of ten. In the case of `Cc1cc(-c2c(-c3ccc(F)cn3)nn3c2OCC2(CC2)C3)c2c(Cl)n[nH]c2n1` [Example 464, 3′-(3-Chloro-6-methyl-1H-pyrazolo[3,4-b]pyridin-4-yl)-2′-(5-fluoropyridin-2-yl)-5′H,7′H-spiro[cyclopropane-1,6′-pyrazolo[5,1-b][1,3]oxazine]], the pIC50 was 7.96 on human CSNK1D and 8.30 in assay [5].
In the case of `Cc1cc(-c2c(-c3ccc(F)cn3)nn3c2CO[C@@H](C)C3)c2cn[nH]c2n1` (single isomer, unassigned) [Example 88, (*S)-2-(5-Fluoro-2-pyridyl)-6-methyl-3-(6-methyl-1H-pyrazolo[3,4-b]pyridin-4-yl)-6,7-dihydro-4H-pyrazolo[5,1-c][1,4]oxazine], the values for the pIC50 (on human CSNK1D; in assay [5]) were 6.61 and 7.92, respectively.
Regarding `CC1(C(F)(F)F)Cn2nc(-c3ccc(F)cc3)c(-c3ccnc4[nH]ncc34)c2CO1` (single isomer, unassigned) [Example 417, (*)-2-(4-Fluorophenyl)-6-methyl-3-(1H-pyrazolo[3,4-b]pyridin-4-yl)-6-(trifluoromethyl)-6,7-dihydro-4H-pyrazolo[5,1-c][1,4]oxazine], the pIC50 is 8.52 on human CSNK1D and 9.00 in assay [5].
The like results for `Fc1ccc(-c2nn3c(c2-c2c(F)cnc4[nH]ncc24)OCC2(C3)CC2(F)F)cc1` (centres unmarked) [Example 471, 2,2-Difluoro-3′-(5-fluoro-1H-pyrazolo[3,4-b]pyridin-4-yl)-2′-(4-fluorophenyl)-5′H,7′H-spiro[cyclopropane-1,6′-pyrazolo[5,1-b][1,3]oxazine]] were, in that order, 8.52 and 8.70.
Taken in the same sequence, the figures for `Cc1nc2[nH]nc(C)c2c(-c2c(-c3ccc(F)cn3)nn3c2CC2(C3)CC2(F)F)c1F` (single isomer, unassigned) [Example 266, (*S)-1′1l′-Difluoro-3-(5-fluoro-3,6-dimethyl-1H-pyrazolo[3,4-b]pyridin-4-yl)-2-(5-fluoro-2-pyridyl)spiro[4,6-dihydropyrrolo[1,2-b]pyrazole-5,2′-cyclopropane]] were 6.47 and 7.28.
Taken in the same sequence, the figures for `Cc1nc2[nH]ncc2c(-c2c(-c3ccc(F)cn3)nn3c2CC2(C3)CC2(F)F)c1F` (single isomer, unassigned) [Example 264, (*S)-1′.1′-Difluoro-3-(5-fluoro-6-methyl-1H-pyrazolo[3,4-b]pyridin-4-yl)-2-(5-fluoro-2-pyridyl)spiro[4,6-dihydropyrrolo[1,2-b]pyrazole-5,2′-cyclopropane]] were 7.70 and 8.40.
As for `Cc1cc(-c2c(-c3ccc(F)cn3)nn3c2OC(C)CC3)c2cn[nH]c2n1` (single isomer, unassigned) [Example 200, (*S)-2-(5-Fluoro-2-pyridyl)-5-methyl-3-(6-methyl-1H-pyrazolo[3,4-b]pyridin-4-yl)-6,7-dihydro-5H-pyrazolo[5,1-b][1,3]oxazine], the pIC50 at human CSNK1D is 7.25; in assay [5] it was 8.40.
